Laboratory results from US20230355626A1, “INHIBITORS OF HUMAN IMMUNODEFICIENCY VIRUS REPLICATION” (VIIV HEALTHCARE UK (NO.5) LIMITED, priority 2020, published 2023).

Legend:
recombinant NL4-3 virus = assay: HIV cell culture assay (antiviral activity, luciferase readout in infected MT-2 cells); type: cell-based; conditions: Human immunodeficiency virus 1, NL43, MT2
Experimental: HIV cell culture assay—MT-2 cells, 293T cells and the proviral DNA clone of NL4-3 virus were obtained from the NIH AIDS Research and Reference Reagent Program. MT-2 cells were propagated in RPMI 1640 media supplemented with 10% heat inactivated fetal bovine serum (FBS), 100 μg/ml penicillin G and up to 100 units/mL streptomycin. The 293T cells were propagated in DMEM media supplemented with 10% heat inactivated FBS, 100 μg/mL penicillin G and 100 μg/mL streptomycin. A recombinant NL4-3 proviral clone, in which a section of the nef gene was replaced with the Renilla luciferase gene, was used to make the reference virus used in these studies. The recombinant virus was prepared through transfection of the recombinant NL4-3 proviral clone into 293T cells using Transit-293 Transfection Reagent from Mirus Bio LLC (Madison, WI). Supernatant was harvested after 2-3 days and the amount of virus present was titered in MT-2 cells using luciferase enzyme activity as a marker by measuring luciferase enzyme activity. Luciferase was quantitated using the EnduRen Live Cell Substrate from Promega (Madison, WI). Antiviral activities of compounds toward the recombinant virus were quantified by measuring luciferase activity in MT-2 cells infected for 4-5 days with the recombinant virus in the presence of serial dilutions of the compound.
The 50% effective concentration (EC50) was calculated by using the exponential form of the median effect equation where (Fa)=1/[1+(ED50/drug conc.)m] (Johnson VA, Byington RT. Infectivity Assay. In Techniques in HIV Research. ed. Aldovini A, Walker BD. 71-76. New York: Stockton Press.1990). Curve fitting and analysis were performed with ActivityBase XE Runner software version 9.1.0.4 using model 203 (ID Business Solutions, LTD, Guildford, UK).

[1] = Compound cytotoxicity, XTT-based colorimetric assay; type: cell-based; conditions: human; uninfected MT2 cells, day 4, XTT assay
Experimental: Compound cytotoxicity and the corresponding CC50 values were determined using the same protocol as described in the antiviral assay except that uninfected cells were used. Cytotoxicity was assessed on day 4 in uninfected MT2 cells by using an XTT (2,3-bis[2-Methoxy-4-nitro-5-sulfophenyl]-2H-tetrazolium-5-carboxyanilide inner salt)-based colorimetric assay (Sigma-Aldrich, St Louis, Mo).

Compound | EC50 (recombinant NL4-3 virus) | CC50 at 4 day [1]
Cn1nc(NS(C)(=O)=O)c2c(Cl)ccc(-n3c([C@H](Cc4cc(F)cc(F)c4)NC(=O)Cn4nc(C(F)F)c5c4C(F)(F)[C@@H]4C[C@H]54)nc4nc(OC5CC=CC5)ccc4c3=O)c21 (atropisomer, axis not shown; (P)) [Example 1, N-((S)-1-((3P)-3-(4-chloro-1-methyl-3-(methylsulfonamido)-1H-indazol-7-yl)-7-(cyclopent-3-en-1-yloxy)-4-oxo-3,4-dihydropyrido[2,3-d]pyrimidin-2-yl)-2-(3,5-difluorophenyl)ethyl)-2-((3bS,4aR)-3-(difluoromethyl)-5,5-difluoro-3b,4,4a,5-tetrahydro-1H-cyclopropa[3,4]cyclopenta[1,2-c]pyrazol-1-yl)acetamide] | 0.024 nM | > 100 nM
Cn1nc(NS(C)(=O)=O)c2c(Cl)ccc(-n3c([C@H](Cc4cc(F)cc(F)c4)NC(=O)Cn4nc(C(F)F)c5c4C(F)(F)[C@@H]4C[C@H]54)nc4nc(OCC(F)(F)C(F)(F)C(F)(F)C(F)(F)F)ccc4c3=O)c21 (atropisomer, axis not shown; (P)) [Example 40, N-((S)-1-((3P,3P)-3-(4-chloro-1-methyl-3-(methylsulfonamido)-1H-indazol-7-yl)-7-((2,2,3,3,4,4,5,5,5-nonafluoropentyl)oxy)-4-oxo-3,4-dihydropyrido[2,3-d]pyrimidin-2-yl)-2-(3,5-difluorophenyl)ethyl)-2-((3bS,4aR)-3-(difluoromethyl)-5,5-difluoro-3b,4,4a,5-tetrahydro-1H-cyclopropa[3,4]cyclopenta[1,2-c]pyrazol-1-yl)acetamide] | 0.31 nM | > 100 nM
Cn1nc(NS(C)(=O)=O)c2c(Cl)ccc(-n3c([C@H](Cc4cc(F)cc(F)c4)NC(=O)Cn4nc(C(F)F)c5c4C(F)(F)[C@@H]4C[C@H]54)nc4nc(OCC5(C(F)(F)F)CC5)ccc4c3=O)c21 (atropisomer, axis not shown; (P)) [Example 21, N-((S)-1-((3P)-3-(4-chloro-1-methyl-3-(methylsulfonamido)-1H-indazol-7-yl)-4-oxo-7-((1-(trifluoromethyl)cyclopropyl)methoxy)-3,4-dihydropyrido[2,3-d]pyrimidin-2-yl)-2-(3,5-difluorophenyl)ethyl)-2-((3bS,4aR)-3-(difluoromethyl)-5,5-difluoro-3b,4,4a,5-tetrahydro-1H-cyclopropa[3,4]cyclopenta[1,2-c]pyrazol-1-yl)acetamide] | 0.046 nM | > 500 nM
Cn1nc(NS(C)(=O)=O)c2c(Cl)ccc(-n3c([C@H](Cc4cc(F)cc(F)c4)NC(=O)Cn4nc(C(F)F)c5c4C(F)(F)[C@@H]4C[C@H]54)nc4nc(Oc5ccccc5F)ccc4c3=O)c21 (atropisomer, axis not shown; (P)) [Example 37, N-((S)-1-((3P)-3-(4-chloro-1-methyl-3-(methylsulfonamido)-1H-indazol-7-yl)-7-(2-fluorophenoxy)-4-oxo-3,4-dihydropyrido[2,3-d]pyrimidin-2-yl)-2-(3,5-difluorophenyl)ethyl)-2-((3bS,4aR)-3-(difluoromethyl)-5,5-difluoro-3b,4,4a,5-tetrahydro-1H-cyclopropa[3,4]cyclopenta[1,2-c]pyrazol-1-yl)acetamide] | 0.081 nM | > 100 nM
Cn1nc(COc2ccc3c(=O)n(-c4ccc(Cl)c5c(NS(C)(=O)=O)nn(C)c45)c([C@H](Cc4cc(F)cc(F)c4)NC(=O)Cn4nc(C(F)F)c5c4C(F)(F)[C@@H]4C[C@H]54)nc3n2)cc1C(F)(F)F (atropisomer, axis not shown; (P)) [Example 13, N-((S)-1-((3P)-3-(4-chloro-1-methyl-3-(methylsulfonamido)-1H-indazol-7-yl)-7-((1-methyl-5-(trifluoromethyl)-1H-pyrazol-3-yl)methoxy)-4-oxo-3,4-dihydropyrido[2,3-d]pyrimidin-2-yl)-2-(3,5-difluorophenyl)ethyl)-2-((3bS,4aR)-3-(difluoromethyl)-5,5-difluoro-3b,4,4a,5-tetrahydro-1H-cyclopropa[3,4]cyclopenta[1,2-c]pyrazol-1-yl)acetamide] | 0.058 nM | > 100 nM
Cc1cc(C)nc(COc2ccc3c(=O)n(-c4ccc(Cl)c5c(NS(C)(=O)=O)nn(C)c45)c([C@H](Cc4cc(F)cc(F)c4)NC(=O)Cn4nc(C(F)F)c5c4C(F)(F)[C@@H]4C[C@H]54)nc3n2)n1 (atropisomer, axis not shown; (P)) [Example 6, N-((S)-1-((3P,3P)-3-(4-chloro-1-methyl-3-(methylsulfonamido)-1H-indazol-7-yl)-7-((4,6-dimethylpyrimidin-2-yl)methoxy)-4-oxo-3,4-dihydropyrido[2,3-d]pyrimidin-2-yl)-2-(3,5-difluorophenyl)ethyl)-2-((3bS,4aR)-3-(difluoromethyl)-5,5-difluoro-3b,4,4a,5-tetrahydro-1H-cyclopropa[3,4]cyclopenta[1,2-c]pyrazol-1-yl)acetamide] | 0.036 nM | > 500 nM
CN(CCCOc1ccc2c(=O)n(-c3ccc(Cl)c4c(NS(C)(=O)=O)nn(C)c34)c([C@H](Cc3cc(F)cc(F)c3)NC(=O)Cn3nc(C(F)F)c4c3C(F)(F)[C@@H]3C[C@H]43)nc2n1)CC(F)(F)F (atropisomer, axis not shown; (P)) [Example 11, N-((S)-1-((3P)-3-(4-chloro-1-methyl-3-(methylsulfonamido)-1H-indazol-7-yl)-7-(3-(methyl(2,2,2-trifluoroethyl)amino)propoxy)-4-oxo-3,4-dihydropyrido[2,3-d]pyrimidin-2-yl)-2-(3,5-difluorophenyl)ethyl)-2-((3bS,4aR)-3-(difluoromethyl)-5,5-difluoro-3b,4,4a,5-tetrahydro-1H-cyclopropa[3,4]cyclopenta[1,2-c]pyrazol-1-yl)acetamide] | 0.027 nM | > 100 nM
CN(CCOc1ccc2c(=O)n(-c3ccc(Cl)c4c(NS(C)(=O)=O)nn(C)c34)c([C@H](Cc3cc(F)cc(F)c3)NC(=O)Cn3nc(C(F)F)c4c3C(F)(F)[C@@H]3C[C@H]43)nc2n1)CC(F)(F)F (atropisomer, axis not shown; (P)) [Example 9, N-((S)-1-((3P)-3-(4-chloro-1-methyl-3-(methylsulfonamido)-1H-indazol-7-yl)-7-(2-(methyl(2,2,2-trifluoroethyl)amino)ethoxy)-4-oxo-3,4-dihydropyrido[2,3-d]pyrimidin-2-yl)-2-(3,5-difluorophenyl)ethyl)-2-((3bS,4aR)-3-(difluoromethyl)-5,5-difluoro-3b,4,4a,5-tetrahydro-1H-cyclopropa[3,4]cyclopenta[1,2-c]pyrazol-1-yl)acetamide] | 0.018 nM | > 100 nM
Cn1nc(NS(C)(=O)=O)c2c(Cl)ccc(-n3c([C@H](Cc4cc(F)cc(F)c4)NC(=O)Cn4nc(C(F)F)c5c4C(F)(F)[C@@H]4C[C@H]54)nc4nc(OCC(F)(F)C(F)(F)F)ccc4c3=O)c21 (atropisomer, axis not shown; (P)) [Example 18, N-(1-((3P,3P)-3-(4-chloro-1-methyl-3-(methylsulfonamido)-1H-indazol-7-yl)-4-oxo-7-(2,2,3,3,3-pentafluoropropoxy)-3,4-dihydropyrido[2,3-d]pyrimidin-2-yl)-2-(3,5-difluorophenyl)ethyl)-2-((3bS,4aR)-3-(difluoromethyl)-5,5-difluoro-3b,4,4a,5-tetrahydro-1H-cyclopropa[3,4]cyclopenta[1,2-c]pyrazol-1-yl)acetamide] | 0.031 nM | > 100 nM
Cn1nc(NS(C)(=O)=O)c2c(Cl)ccc(-n3c([C@H](Cc4cc(F)cc(F)c4)NC(=O)Cn4nc(C(F)F)c5c4C(F)(F)[C@@H]4C[C@H]54)nc4nc(OCCC5CC(F)(F)C5)ccc4c3=O)c21 (atropisomer, axis not shown; (P)) [Example 32, N-((S)-1-((3P,3P)-3-(4-chloro-1-methyl-3-(methylsulfonamido)-1H-indazol-7-yl)-7-(2-(3,3-difluorocyclobutyl)ethoxy)-4-oxo-3,4-dihydropyrido[2,3-d]pyrimidin-2-yl)-2-(3,5-difluorophenyl)ethyl)-2-((3bS,4aR)-3-(difluoromethyl)-5,5-difluoro-3b,4,4a,5-tetrahydro-1H-cyclopropa[3,4]cyclopenta[1,2-c]pyrazol-1-yl)acetamide] | – | > 100 nM
